The results in this text go back to US20230103965A1, “NOVEL ACTIVATORS OF THE LIPIDATING TRANSPORTER ATP BINDING CASSETTE PROTEIN TYPE 1 (AB-CA1) AND THERAPEUTIC USES THEREOF” (RAMOT AT TEL-AVIV UNIVERSITY LTD., priority 2020, published 2023).

Assay [1] addresses T1, ABCA1 (Homo sapiens, UniProt O95477).
T1 construct: expressed in transfected cells; host or cells: BHK (baby hamster kidney) cells, ABCA1 induced with mifepristone
Description: ABCA1 dependency of cholesterol efflux in BHK cells with inducible ABCA1. The class given is cell-based. As to conditions: for ABCA1 dependency of the effect on cholesterol efflux: BHK cells, presence vs absence of ABCA1. The procedure:
(§1) Mife=Mifepristone which induces the expression of ABCA1.
as §1
(iii) Assessment of the ABCA1 dependency of the effects of the hits on cholesterol efflux. These experiments investigated the extent to which ABCA1 is indeed the target of the hits. This was performed utilizing BHK (baby hamster kidney) cells with inducible expression of ABCA1 followed by determination of the effects for the presence and absence of ABCA1 on the translocation of cholesterol to apoE4.

The target of assay [2] is T2, ECD2 of ABCA1 (Homo sapiens, UniProt O95477).
T2 construct: The proteins used in these experiments were Extra-Cellular Domain 1 (ECD1) of ABCA1 and Extra-Cellular Domain 2 (ECD2); purchased Biomatick
T2 sequence (O95477 1372-1656 limits assumed): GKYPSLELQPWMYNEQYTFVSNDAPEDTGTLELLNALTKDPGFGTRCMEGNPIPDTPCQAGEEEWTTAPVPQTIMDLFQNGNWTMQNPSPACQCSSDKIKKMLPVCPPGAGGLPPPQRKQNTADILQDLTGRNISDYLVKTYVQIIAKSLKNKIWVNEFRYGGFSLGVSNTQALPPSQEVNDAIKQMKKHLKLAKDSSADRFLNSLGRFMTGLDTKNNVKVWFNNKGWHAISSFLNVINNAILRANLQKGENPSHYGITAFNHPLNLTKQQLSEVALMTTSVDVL
Description: Microscale thermophoresis (MST) binding to ECD2. The procedure: Microscale thermophoresis (MST) measurements. MST measurements of the binding of the HTS hits to the extracellular domain (ECD) of ABCA1 were performed by two complimentary methods utilizing either fluorescently labeled proteins or the endogenous fluorescence of unlabeled proteins. This was pursued as follows:
(i) MST utilizing labeled proteins: The proteins used in these experiments were Extra-Cellular Domain 1 (ECD1) of ABCA1 and Extra-Cellular Domain 2 (ECD2) which were provided by the manufacturer (Biomatick) at a concentration of 7.1 μM. The buffers of protein samples were exchanged on a desalting PD-10 column to MST labelling buffer (Nanotemper Technologies, NT.115). […] The concentrations of the labeled protein samples solutions were determined by Spectrophotometer (Carey 60) at 280 nm and 650 nm and adjusted to a final concentration 7.1 μM, aliquoted in 30 μl and stored at −80° C. for further use. Protein-compound interactions were analyzed by microscale thermophoresis. […] All dissociation constants (KD) were calculated to a binding model assuming a 1:1 stoichiometry per binding partner. […]
These experiments employed the MST ligand binding to protein assay (FIG. 13 and EXAMPLE 1). […] Two complementary MST tests were performed, in which either the proteins were labeled with a fluorescence moiety or the endogenous fluorescence of the unlabeled proteins was monitored).
(In general: In MST a laser heats a spot of the sample, and binding alters the fluorescence response.)

T1 sequence (O95477 whole entry): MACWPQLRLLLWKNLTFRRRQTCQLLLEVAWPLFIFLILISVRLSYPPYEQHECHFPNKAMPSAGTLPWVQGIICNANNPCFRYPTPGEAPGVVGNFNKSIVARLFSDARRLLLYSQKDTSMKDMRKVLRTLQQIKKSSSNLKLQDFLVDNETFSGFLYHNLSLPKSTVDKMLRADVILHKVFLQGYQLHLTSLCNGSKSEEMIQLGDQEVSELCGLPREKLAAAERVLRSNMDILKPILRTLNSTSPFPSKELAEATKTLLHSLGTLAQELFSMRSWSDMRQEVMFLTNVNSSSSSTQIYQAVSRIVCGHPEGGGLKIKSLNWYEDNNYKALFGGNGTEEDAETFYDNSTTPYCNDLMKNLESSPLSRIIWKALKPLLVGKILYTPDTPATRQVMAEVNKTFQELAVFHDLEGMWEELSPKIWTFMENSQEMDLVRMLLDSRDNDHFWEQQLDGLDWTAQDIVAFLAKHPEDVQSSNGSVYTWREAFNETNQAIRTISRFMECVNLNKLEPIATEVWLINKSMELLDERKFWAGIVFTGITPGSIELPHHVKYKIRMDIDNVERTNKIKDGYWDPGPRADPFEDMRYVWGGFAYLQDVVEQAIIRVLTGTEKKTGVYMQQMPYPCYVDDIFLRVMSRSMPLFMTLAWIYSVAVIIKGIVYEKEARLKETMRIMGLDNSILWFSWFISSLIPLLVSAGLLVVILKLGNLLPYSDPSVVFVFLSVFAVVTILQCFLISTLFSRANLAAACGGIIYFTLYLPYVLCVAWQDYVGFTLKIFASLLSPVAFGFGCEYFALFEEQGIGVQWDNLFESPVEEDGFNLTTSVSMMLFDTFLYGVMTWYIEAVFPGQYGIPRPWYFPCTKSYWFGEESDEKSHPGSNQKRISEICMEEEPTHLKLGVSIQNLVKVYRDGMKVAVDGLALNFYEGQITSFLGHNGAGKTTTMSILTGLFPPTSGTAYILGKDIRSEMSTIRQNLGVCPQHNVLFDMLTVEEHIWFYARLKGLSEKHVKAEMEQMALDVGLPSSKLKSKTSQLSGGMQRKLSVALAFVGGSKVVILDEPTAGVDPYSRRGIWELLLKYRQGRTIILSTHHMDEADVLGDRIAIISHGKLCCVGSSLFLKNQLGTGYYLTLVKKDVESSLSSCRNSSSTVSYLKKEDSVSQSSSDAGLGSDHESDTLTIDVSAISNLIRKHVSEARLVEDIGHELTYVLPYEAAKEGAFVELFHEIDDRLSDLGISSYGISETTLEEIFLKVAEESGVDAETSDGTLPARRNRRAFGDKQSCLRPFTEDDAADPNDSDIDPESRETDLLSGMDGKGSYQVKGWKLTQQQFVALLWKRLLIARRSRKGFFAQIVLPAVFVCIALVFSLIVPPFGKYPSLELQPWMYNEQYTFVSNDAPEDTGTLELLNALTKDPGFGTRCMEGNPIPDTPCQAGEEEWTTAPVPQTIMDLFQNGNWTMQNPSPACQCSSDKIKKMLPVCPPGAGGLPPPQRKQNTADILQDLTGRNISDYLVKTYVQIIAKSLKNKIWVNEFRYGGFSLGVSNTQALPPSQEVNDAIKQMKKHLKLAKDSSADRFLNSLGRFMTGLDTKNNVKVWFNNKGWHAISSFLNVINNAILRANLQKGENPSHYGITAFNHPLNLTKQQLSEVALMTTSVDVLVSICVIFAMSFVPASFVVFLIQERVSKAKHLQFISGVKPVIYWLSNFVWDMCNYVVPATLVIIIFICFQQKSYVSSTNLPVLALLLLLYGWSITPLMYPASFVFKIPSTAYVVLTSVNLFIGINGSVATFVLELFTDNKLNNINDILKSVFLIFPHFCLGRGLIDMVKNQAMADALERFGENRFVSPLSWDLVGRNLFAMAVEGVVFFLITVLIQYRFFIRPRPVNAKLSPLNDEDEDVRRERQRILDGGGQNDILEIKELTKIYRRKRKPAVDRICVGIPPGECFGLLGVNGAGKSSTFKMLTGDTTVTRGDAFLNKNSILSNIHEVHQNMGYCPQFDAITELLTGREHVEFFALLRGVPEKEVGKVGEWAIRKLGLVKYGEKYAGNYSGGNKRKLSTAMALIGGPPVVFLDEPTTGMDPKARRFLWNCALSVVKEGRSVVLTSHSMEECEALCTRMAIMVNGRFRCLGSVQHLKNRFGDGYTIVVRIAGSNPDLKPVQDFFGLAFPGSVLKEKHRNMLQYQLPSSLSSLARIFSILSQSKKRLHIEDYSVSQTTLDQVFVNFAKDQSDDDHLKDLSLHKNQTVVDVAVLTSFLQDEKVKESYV

Turning to `Cc1nn(CC(=O)c2ccc(Br)s2)c(C)c1[N+](=O)[O-]` [Hit #3], in assay [1] (BHK cells not expressing ABCA1), the “Lipidation of apoE4 in the absence of ABCA1” value is given as “did not stimulate any lipidation of apoE4”. Further, in assay [1], the “ABCA1 dependency of the effect on cholesterol efflux” value is “depend on the presence of ABCA1”. In addition, the “MST binding to ECD2” value in assay [2] is given as “do not bind at all”.
On to `CC(C)(C)C(=O)COC(=O)c1ccccc1SCc1cc(-c2ccco2)on1` [Hit #4], for which, in assay [1], the “ABCA1 dependency of the effect on cholesterol efflux” value is listed as “depend on the presence of ABCA1”. Also, the “MST binding to ECD2” value in assay [2] is on record as “do not bind at all”.
Turning to `O=[N+]([O-])c1ccc(N2CCCCC2)c2nonc12` [Hit #7], the “ABCA1 dependency BHK Cells” value in assay [1] (Table 2) and in assay [1] (Table 4) was “No activity” in each case. In addition, the “Cholesterol efflux from ABCA1 expressing BHK cells” value in assay [1] (BHK cells expressing ABCA1) is reported as “had no effect”.
